The source of these data is patent US4824836A, “Spiro (4,5) decone compounds” (Adir et Compagnie, priority 1987, dated 1989).

As a reminder, the IC50 is the concentration needed to halve the response being measured.

The subject of this assay is Peritoneal rat mastocytes. The experiment in a line: mastocyte degranulation test in vitro (inhibition of compound 48/80-induced histamine granule release). The assay is classed as cell-based. As to conditions: rat peritoneal mastocytes incubated with compound 48/80; dose that inhibits histamine granule release by 50%. The protocol: The compounds of the invention and fenspiride, a prior art product taken as reference substance, were subjected to the mastocyte degranulation test:
Peritoneal rat mastocytes are incubated in vitro in the presence of compound 48/80, which causes histamine granules to be released. The protective effect of the tested compounds is expressed in IC50, that is to say the (molar) dose that inhibits this release by 50%.

For `CC(=O)Oc1c(C(C)=O)ccc(OCCCN2CCC3(CC2)CN(C(C)=O)C(=O)O3)c1CC(C)C` [Example 4d, 8-[3-(2-isobutyl-3-acetoxy-4-acetylphenoxy)propyl]-1-oxa-2-oxo-3,8-diaza-3-acetyl-spiro[4.5]decane], the half-maximal inhibitory concentration (IC50) was 730 µM. The same measure, in the same setting: next, `CCCc1c(OCCCCCN2CCC3(CC2)CN(C(C)=O)C(=O)O3)ccc(C(C)=O)c1OC(C)=O` [Example 4b, 8-[5-(2-propyl-3-acetoxy-4-acetylphenoxy)pentyl]-1-oxa-2-oxo-3,8-diaza-3-acetyl-spiro[4.5]decane]: 1000 µM; `CCCc1c(OCCCN2CCC3(CC2)CNC(=O)O3)ccc2c(=O)cc(C(=O)OCC)oc12` [Example 1i, 8-[3-(2-ethoxycarbonyl-8-propyl-7-chrom-4-onyloxy)propyl]-1-oxa-2-oxo-3,8-diaza-spiro[4.5]decane]: 100 µM.

On to `CCCc1c(OCCN2CCC3(CC2)CNC(=O)O3)ccc(C(C)=O)c1O` [Example 1a, 8-[2-(2-propyl-3-hydroxy-4-acetylphenoxy)ethyl]-1-oxa-2-oxo-3,8-diaza-spiro[4.5]decane], for which the IC50 turned out to be 200 µM. The same measure, in the same setting: next, `CCCc1c(OCCCN2CCC3(CC2)CNC(=O)O3)ccc(C(C)=O)c1O` [Example 1, 8-[3-(2-propyl-3-hydroxy-4-acetylphenoxy)propyl]-1-oxa-2-oxo-3,8-diaza-spiro[4.5]decane]: 240 µM. Same read-out and setting: with `C=CCc1c(OCCCN2CCC3(CC2)CN(C(C)=O)C(=O)O3)ccc(C(C)=O)c1O` [Example 5, 8-[3-(2-allyl-3-hydroxy-4-acetylphenoxy)propyl]-1-oxa-2-oxo-3,8-diaza-3-acetyl-spiro[4.5]decane] the figure was 750 µM. For the molecule `CCCc1c(OCCCN2CCC3(CC2)CNC(=O)O3)ccc2c1OCCC2=O` [Example 1j], the IC50 amounted to 100 µM. On to `C=CCc1c(OCCCN2CCC3(CC2)CNC(=O)O3)ccc(C(C)=O)c1O` [Example 1h, 8-[3-(2-allyl-3-hydroxy-4-acetylphenoxy)propyl]-1-oxa-2-oxo-3,8-diaza-spiro[4.5]decane], for which the IC50 was 250 µM. The same measure, in the same setting: with `CCCc1c(OCCN2CCC3(CC2)OC(=O)NC3C)ccc(C(C)=O)c1O` (centres unmarked) [Example 1f, 8-[2-(2-propyl-3-hydroxy-4-acetylphenoxy)ethyl]-1-oxa-2-oxo-3,8-diaza-4-methyl-spiro[4.5]decane] the figure was 100 µM. Regarding `O=C1NCC2(CCN(CCc3ccccc3)CC2)O1` [fenspiride, reference compound], the “Mastocyte degranulation in vitro - IC50” value was “inactive”.

Consider `CCCc1c(OCC(O)CN2CCC3(CC2)CNC(=O)O3)ccc(C(C)=O)c1O` (centres unmarked) [Example 1c, 8-[3-(2-propyl-3-hydroxy-4-acetylphenoxy)-2-hydroxypropyl]-1-oxa-2-oxo-3,8-diaza-spiro[4.5]decane], for which the IC50 turned out to be 1000 µM.

For `C=CCc1c(OCCCN2CCC3(CC2)CN(C(C)=O)C(=O)O3)ccc(C(C)=O)c1OC(C)=O` [Example 4a, 8-[3-(2-allyl-3-acetoxy-4-acetylphenoxy)propyl]-1-oxa-2-oxo-3,8-diaza-3-acetyl-spiro[4.5]decane], the IC50 turned out to be 2500 µM.

Take `CCc1c(OCCCN2CCC3(CC2)CN(C(C)=O)C(=O)O3)ccc(C(C)=O)c1OC(C)=O` [Example 4c, 8-[3-(2-ethyl-3-acetoxy-4-acetylphenoxy)propyl]-1-oxa-2-oxo-3,8-diaza-3-acetyl-spiro[4.5]decane]: the IC50 is > 1000 µM. Same read-out and setting: with `CCc1c(OCCCN2CCC3(CC2)CNC(=O)O3)ccc(C(C)=O)c1O` [Example 1k, 8-[3-(2-ethyl-3-hydroxy-4-acetylphenoxy)propyl]-1-oxa-2-oxo-3,8-diaza-spiro[4.5]decane] the figure was 830 µM; with `CC(=O)c1ccc(OCCCN2CCC3(CC2)CNC(=O)O3)c(CC(C)C)c1O` [Example 1l, 8-[3-(2-isobutyl-3-hydroxy-4-acetylphenoxy)propyl]-1-oxa-2-oxo-3,8-diaza-spiro[4.5]decane], 116 µM.

As to `CCCc1c(OCCCCCN2CCC3(CC2)CNC(=O)O3)ccc(C(C)=O)c1OC(C)=O` [Example 6a, 8-[5-(2-propyl-3-acetoxy-4-acetylphenoxy)pentyl]-1-oxa-2-oxo-3,8-diaza-spiro[4.5]decane], the IC50 was 2000 µM. On to `CCCc1c(OCCCN2CCC3(CC2)OC(=O)NC3C)ccc(C(C)=O)c1O` (centres unmarked) [Example 2, 8-[3-(2-propyl-3-hydroxy-4-acetylphenoxy)propyl]-1-oxa-2-oxo-3,8-diaza-4-methyl-spiro[4.5]decane], for which the IC50 stood at 200 µM.

In the case of `CCCc1c(OCCCN2CCC3(CC2)CN(C(C)=O)C(=O)O3)ccc(C(C)=O)c1OC(C)=O` [Example 4, 8-[3-(2-propyl-3-acetoxy-4-acetylphenoxy)propyl]-1-oxa-2-oxo-3,8-diaza-3-acetyl-spiro[4.5]decane], the IC50 is 720 µM. The same measure, in the same setting: next, `CCCc1c(OCCCCCCN2CCC3(CC2)CNC(=O)O3)ccc(C(C)=O)c1O` [Example 1e, 8-[6-(2-propyl-3-hydroxy-4-acetylphenoxy)hexyl]-1-oxa-2-oxo-3,8-diaza-spiro[4.5]decane]: 92 µM; `CCCc1c(OCCCN2CCC3(CC2)CNC(=O)O3)ccc(C(C)=O)c1OC(C)=O` [Example 6, 8-[3-(2-propyl-3-acetoxy-4-acetylphenoxy)propyl]-1-oxa-2-oxo-3,8-diaza-spiro[4.5]decane]: 1200 µM. The same measure, in the same setting: with `CCCc1c(OCCCCCN2CCC3(CC2)CNC(=O)O3)ccc(C(C)=O)c1O` [Example 1d, 8-[5-(2-propyl-3-hydroxy-4-acetylphenoxy)pentyl]-1-oxa-2-oxo-3,8-diaza-spiro[4.5]decane] the figure was 110 µM; with `CCCc1c(OCCCCN2CCC3(CC2)CNC(=O)O3)ccc(C(C)=O)c1O` [Example 1b, 8-[4-(2-propyl-3-hydroxy-4-acetylphenoxy)butyl]-1-oxa-2-oxo-3,8-diaza-spiro[4.5]decane], 200 µM; with `CCCc1c(OCCCN2CCC3(CC2)CNC(=O)O3)ccc2c(=O)cc(C(=O)O)oc12` [Example 3, 8-[3-(2-carboxy-8-propyl-7-chrom-4-onyloxy)propyl]-1-oxa-2-oxo-3,8-diaza-spiro[4.5]decane], 1000 µM.
